Laboratory results taken from patent publication US20260364184A1, “COMPOUND BASED ON OXOISOINDOLINYL-SUBSTITUTED TETRAHYDROPYRIMIDINE-DIONE AND USE THEREOF” (GLUETACS THERAPEUTICS (SHANGHAI) CO., LTD., priority 2023, published 2026).
Like-named read-outs stand apart in the source and are kept apart here.

Assays:
JEKO-1 = experiment: Inhibition of JEKO-1 cell proliferation (CellTiter luminescent viability); format: cell-based, human; conditions: JEKO-1, 96 hours, read-out: Inhibitory activity (IC50, nM) on tumor cell proliferation, JEKO-1
Procedure: (§1) The tumor cells used herein were cultured in a cell culture medium listed in table 3 at 37 °C in an incubator with 5% CO2. Prior to experimentation, all cell lines used were correctly identified by STR profiling, and tested negative for mycoplasma contamination using a mycoplasma detection kit through routine screenings.
(§2) The IC50 values of the compounds of the present disclosure (including the compounds in Table 1, Table 2, and Examples 1-468) were determined using the CellTiter-Meiluncell Luminescent Cell Viability Assay Kit from Dalian Meilun Biotech Co., Ltd. The detailed procedure is as follows: Tumor cells were seeded in 96-well cell culture plates at the densities specified in Table 4. On the following day, the test compounds of the present disclosure were subjected to serial dilution. The dilution can be performed according to one of the following two methods: • (1) The first dilution method: The test compounds of the present disclosure (including the compounds in Table 1, Table 2, and Examples 1-468) were subjected to 5-fold serial dilutions starting from a highest concentration of 2000 μM, resulting in a total of 9 concentrations from high to low (2000, 400, 80, 16, 3.2, 0.64, 0.128, 0.0256, 0.00512 μM). Subsequently, 0.5 μL of the test compound dilution was transferred into the 96-well plate containing the cells, with each well containing 100 μL of cell culture medium. […] Into the 96-well plate, the diluted test compounds and corresponding detection reagents were added, resulting in final test compound concentrations of 500 nM and 10 nM, respectively. The experimental procedure is described below using the diluted 2 μM test compound as an example.
(§3) 0.5 μL of the aforementioned diluted compound of the present disclosure (including the compounds in Table 1, Table 2, and Examples 1-468) was added to the seeded cells in 100 μL of medium, yielding a final test compound concentration of 10 nM. After the cells were treated with the compounds of the present disclosure for a specified period, the cell viability assay reagent was added to the culture medium according to the kit's instructions to determine cell viability. […] All controls were treated using the same procedure as the compounds of the present disclosure. The growth inhibition curves for the compounds of the present disclosure were plotted using Prism GraphPad software, and the IC50 values were calculated therefrom.

[1] = tested on: Human large cell immunoblastic lymphoma cell line SR; experiment: Inhibition of SR cell proliferation (CellTiter luminescent viability); format: cell-based; conditions: Table IA1, IRAK4 inhibitor-based, 96 hours, read-out: Inhibitory activity (IC50, nM) on tumor cell proliferation, SR
How it was run: (§4)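 Cells are seeded in 96-well plates, cultured at 37 °C, 5% CO2, and treated next day with 5-fold serial compound dilutions (stock series from 2000 μM; 0.5 μL into 100 μL medium). Viability is read by CellTiter-Meiluncell luminescence after the set exposure, and IC50 is taken from growth-inhibition curves.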

[2] = tested on: Human T lymphocytic leukemia cell line (Jurkat); experiment: Inhibition of Jurkat cell proliferation (CellTiter luminescent viability); format: cell-based; conditions: 96 hours, read-out: Inhibitory activity (IC50, nM) on tumor cell proliferation, Jurkat
[3] = tested on: Human gastric cancer cell line MGC803; experiment: Inhibition of MGC803 tumor cell proliferation (CellTiter luminescent viability); format: cell-based; conditions: MGC803, 96 hours, read-out: Inhibitory activity (IC50, nM) on tumor cell proliferation, MGC803
Procedure: as §1, §2, §3

[4] = tested on: Human Multiple myeloma cell line (MM.1S); experiment: Inhibition of MM.1S cell proliferation (CellTiter luminescent viability); format: cell-based; conditions: 96 hours, read-out: Inhibitory activity (IC50, nM) on tumor cell proliferation, MM.1S
How it was run: as §4

IRAK4 = biological target: T1, IRAK4 (Homo sapiens, UniProt Q9NWZ3); experiment: Western blot degradation of IRAK4; format: cell-based; conditions: hPBMC Cell; 24 hours
T1 construct: expression of target proteins in cells; endogenous in cells
T1 sequence (Q9NWZ3 1-460): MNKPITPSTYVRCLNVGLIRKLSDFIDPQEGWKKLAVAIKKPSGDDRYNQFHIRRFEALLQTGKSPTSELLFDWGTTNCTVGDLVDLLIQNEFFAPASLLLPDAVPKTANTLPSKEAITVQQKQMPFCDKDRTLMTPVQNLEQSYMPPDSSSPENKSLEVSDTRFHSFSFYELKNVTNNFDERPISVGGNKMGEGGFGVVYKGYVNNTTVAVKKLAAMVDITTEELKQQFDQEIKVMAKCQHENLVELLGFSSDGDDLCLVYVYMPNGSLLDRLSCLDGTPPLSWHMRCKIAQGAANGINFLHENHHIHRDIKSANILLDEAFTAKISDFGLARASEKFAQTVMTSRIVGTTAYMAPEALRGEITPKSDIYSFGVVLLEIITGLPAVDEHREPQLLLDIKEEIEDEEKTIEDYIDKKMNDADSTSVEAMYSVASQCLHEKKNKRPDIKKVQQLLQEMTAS
How it was run: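 Cells treated with compound, lysed, and target protein detected by Western blot (SDS-PAGE, nitrocellulose transfer). DC50 taken as the concentration giving band grayscale half that of DMSO control, estimated by concentration-response fitting; remaining protein (%) from target band normalised to internal control band; degradation (%) = 1 − remaining.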

EZH2 = biological target: T2, EZH2 (Homo sapiens, UniProt Q15910+Q96SW2); experiment: Western blot degradation of EZH2; format: cell-based; conditions: hPBMC Cell; 24 hours
T2 construct: expression of target proteins in cells; endogenous in cells
Procedure: Conventional Western blot assay was performed to evaluate the effects of the compounds of the present disclosure on the expression of target proteins in cells.
(1) Cell Seeding and Protein Harvesting: The selected cells were processed according to the cell seeding procedure and protein harvesting procedure in Table II-2.
(2) To the collected supernatant, 5×SDS sample loading buffer was added, followed by denaturation at 95 °C for 5 minutes. The denatured samples were then separated by SDS-PAGE electrophoresis on a polyacrylamide gel. Proteins were transferred to a nitrocellulose membrane (0.45 μm NC membrane), blocked with blocking buffer at room temperature for 1 hour, and subjected to antibody incubation and development procedures according to the antibody manufacturer's instructions (Cell Signaling Technology).
Half-Maximal Degradation Concentration value (the drug concentration required for degrading proteins by 50%, abbreviated as DC50) reads method: comparing the grayscale values of Western blot bands from drug-treated samples with those from blank DMSO-treated controls, and identifying the drug concentration range at which the grayscale value is half that of the DMSO-treated control bands.
DC50 values can be calculated using ImageJ software to measure grayscale values of Western blot bands from drug-treated samples. The concentration-response curve is fitted to estimate the drug concentration corresponding to half the grayscale value.
Target protein remaining (%) refers to the percentage of target protein remaining in cells after treatment with protein degrader compounds.
Calculation method for target protein remaining (%): Use ImageJ software to measure grayscale values of Western blot bands from drug (protein degrader)-treated samples. The grayscale value of drug-treated bands is divided by that of internal control protein bands, and the resulting quotient is normalized to obtain the relative percentage of remaining target protein after protein degrader treatment.
Target protein degradation rate (%)=1−target protein remaining (%).

[5] = tested on: Human malignant melanoma cell line (A375); experiment: Inhibition of A375 cell proliferation (CellTiter luminescent viability); conditions: A-375, Table III (II1), EZH2 inhibitor-based, 96 hours; for inhibition at 0.01 µM: A375, 10 nM, read-out: Inhibition Rate at 10 nM (%); for inhibition at 0.5 µM: A375, 500 nM, read-out: Inhibition Rate at 500 nM (%)
Procedure: as §1, §2, §3

[6] = tested on: Human neuroblastoma cell line (SK-N-AS); experiment: Inhibition of SK-N-AS cell proliferation (CellTiter luminescent viability); format: cell-based; conditions: Table II2, EZH2 inhibitor-based, 96 hours; for inhibition at 0.01 µM: 10 nM, read-out: Inhibition Rate at 10 nM (%); for inhibition at 0.5 µM: 500 nM, read-out: Inhibition Rate at 500 nM (%)
[7] = tested on: Human non-small cell lung cancer cell line NCI-H1975; experiment: Inhibition of H1975 cell proliferation (CellTiter luminescent viability); format: cell-based; conditions: Table IC1, BTK inhibitor-based; H1975, 96 hours; read-out: Inhibitory activity (IC50, nM) on tumor cell proliferation, H1975
How it was run: as §4

[8] = tested on: Human myeloid monocytic leukemia cell line (MV-4-11); experiment: Inhibition of MV-4-11 cell proliferation (CellTiter luminescent viability); format: cell-based; conditions: Homo sapiens, MV4-11, Table IA3, IRAK4 inhibitor-based, 96 hours
How it was run: as §4

[9] = Inhibition of RPMI-8226 cell proliferation (CellTiter luminescent viability); format: cell-based; conditions: Homo sapiens; Table IA4, IRAK4 inhibitor-based; RPMI-8226, 10 nM, 96 hours; read-out: Inhibition Rate at 10 nM (%)
[10] = tested on: Human B-Cell Lymphoma Cells (RPMI-8226); experiment: as above; format: cell-based; conditions: Table IA4, IRAK4 inhibitor-based, RPMI-8226, 500 nM, 96 hours, read-out: Inhibition Rate at 500 nM (%)
[11] = Table IA1, IRAK4 inhibitor-based
[12] = Table IA1, IRAK4 inhibitor-based compounds

T2 sequence (Q15910 whole entry): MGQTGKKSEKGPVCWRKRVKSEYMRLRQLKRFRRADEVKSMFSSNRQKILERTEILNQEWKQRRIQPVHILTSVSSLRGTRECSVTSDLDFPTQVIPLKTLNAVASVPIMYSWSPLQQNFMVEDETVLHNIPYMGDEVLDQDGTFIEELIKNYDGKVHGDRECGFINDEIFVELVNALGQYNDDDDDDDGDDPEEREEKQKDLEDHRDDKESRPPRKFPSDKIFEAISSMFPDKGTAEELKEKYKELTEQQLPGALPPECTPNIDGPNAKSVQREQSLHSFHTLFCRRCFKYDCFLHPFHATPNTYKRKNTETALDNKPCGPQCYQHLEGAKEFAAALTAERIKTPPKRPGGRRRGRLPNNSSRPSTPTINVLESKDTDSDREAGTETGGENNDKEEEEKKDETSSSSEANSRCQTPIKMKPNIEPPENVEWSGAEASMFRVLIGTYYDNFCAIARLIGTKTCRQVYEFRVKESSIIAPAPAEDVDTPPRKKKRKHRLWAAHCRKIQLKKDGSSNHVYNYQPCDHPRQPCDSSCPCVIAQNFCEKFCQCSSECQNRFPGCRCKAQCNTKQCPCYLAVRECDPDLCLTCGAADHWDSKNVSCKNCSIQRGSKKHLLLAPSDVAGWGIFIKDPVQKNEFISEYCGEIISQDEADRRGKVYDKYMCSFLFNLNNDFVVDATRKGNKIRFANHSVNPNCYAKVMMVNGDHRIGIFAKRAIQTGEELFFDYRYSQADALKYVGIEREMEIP
T2 sequence (O75530 whole entry partner): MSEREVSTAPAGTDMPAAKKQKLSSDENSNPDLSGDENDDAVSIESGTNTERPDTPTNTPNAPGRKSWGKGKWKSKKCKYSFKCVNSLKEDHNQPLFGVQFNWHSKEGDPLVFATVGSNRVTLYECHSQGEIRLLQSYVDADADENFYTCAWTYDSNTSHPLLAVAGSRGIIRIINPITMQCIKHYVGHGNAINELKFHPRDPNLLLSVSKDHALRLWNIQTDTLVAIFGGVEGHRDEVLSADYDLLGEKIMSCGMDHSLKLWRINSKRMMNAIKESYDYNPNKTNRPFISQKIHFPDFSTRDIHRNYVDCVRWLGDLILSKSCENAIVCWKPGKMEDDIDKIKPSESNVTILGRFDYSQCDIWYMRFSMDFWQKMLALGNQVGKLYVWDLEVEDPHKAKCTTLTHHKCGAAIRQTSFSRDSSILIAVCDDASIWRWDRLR
T2 sequence (Q15022 whole entry partner): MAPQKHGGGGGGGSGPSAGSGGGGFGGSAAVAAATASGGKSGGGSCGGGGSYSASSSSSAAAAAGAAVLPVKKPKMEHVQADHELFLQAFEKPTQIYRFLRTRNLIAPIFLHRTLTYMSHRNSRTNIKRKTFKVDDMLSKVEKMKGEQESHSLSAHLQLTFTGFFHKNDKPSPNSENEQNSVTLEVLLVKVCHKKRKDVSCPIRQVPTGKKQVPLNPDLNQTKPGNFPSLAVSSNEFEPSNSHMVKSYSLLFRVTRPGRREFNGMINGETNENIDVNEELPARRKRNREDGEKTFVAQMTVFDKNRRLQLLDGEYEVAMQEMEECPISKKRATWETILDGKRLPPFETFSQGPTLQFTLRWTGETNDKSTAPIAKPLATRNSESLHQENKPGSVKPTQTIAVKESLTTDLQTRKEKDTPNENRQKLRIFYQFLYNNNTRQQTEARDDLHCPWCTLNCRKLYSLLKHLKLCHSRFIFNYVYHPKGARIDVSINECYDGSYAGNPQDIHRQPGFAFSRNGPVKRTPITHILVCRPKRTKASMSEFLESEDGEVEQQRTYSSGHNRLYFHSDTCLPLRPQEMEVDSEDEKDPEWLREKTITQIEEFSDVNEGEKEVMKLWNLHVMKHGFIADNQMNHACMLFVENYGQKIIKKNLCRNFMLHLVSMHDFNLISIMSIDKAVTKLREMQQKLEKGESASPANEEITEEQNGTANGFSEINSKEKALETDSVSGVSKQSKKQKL
T2 sequence (Q96SW2 whole entry): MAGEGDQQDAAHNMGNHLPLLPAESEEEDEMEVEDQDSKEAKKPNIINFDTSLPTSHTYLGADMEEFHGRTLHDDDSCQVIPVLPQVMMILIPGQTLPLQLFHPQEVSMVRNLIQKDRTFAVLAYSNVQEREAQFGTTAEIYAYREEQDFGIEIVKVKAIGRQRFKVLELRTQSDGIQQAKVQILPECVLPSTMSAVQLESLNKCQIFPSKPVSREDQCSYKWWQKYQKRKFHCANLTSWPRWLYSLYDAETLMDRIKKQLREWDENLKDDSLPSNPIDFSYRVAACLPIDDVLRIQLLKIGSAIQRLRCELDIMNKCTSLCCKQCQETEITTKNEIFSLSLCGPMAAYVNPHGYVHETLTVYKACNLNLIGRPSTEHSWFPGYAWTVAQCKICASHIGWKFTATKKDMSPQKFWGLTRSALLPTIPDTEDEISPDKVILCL
T2 sequence (Q16531 whole entry partner): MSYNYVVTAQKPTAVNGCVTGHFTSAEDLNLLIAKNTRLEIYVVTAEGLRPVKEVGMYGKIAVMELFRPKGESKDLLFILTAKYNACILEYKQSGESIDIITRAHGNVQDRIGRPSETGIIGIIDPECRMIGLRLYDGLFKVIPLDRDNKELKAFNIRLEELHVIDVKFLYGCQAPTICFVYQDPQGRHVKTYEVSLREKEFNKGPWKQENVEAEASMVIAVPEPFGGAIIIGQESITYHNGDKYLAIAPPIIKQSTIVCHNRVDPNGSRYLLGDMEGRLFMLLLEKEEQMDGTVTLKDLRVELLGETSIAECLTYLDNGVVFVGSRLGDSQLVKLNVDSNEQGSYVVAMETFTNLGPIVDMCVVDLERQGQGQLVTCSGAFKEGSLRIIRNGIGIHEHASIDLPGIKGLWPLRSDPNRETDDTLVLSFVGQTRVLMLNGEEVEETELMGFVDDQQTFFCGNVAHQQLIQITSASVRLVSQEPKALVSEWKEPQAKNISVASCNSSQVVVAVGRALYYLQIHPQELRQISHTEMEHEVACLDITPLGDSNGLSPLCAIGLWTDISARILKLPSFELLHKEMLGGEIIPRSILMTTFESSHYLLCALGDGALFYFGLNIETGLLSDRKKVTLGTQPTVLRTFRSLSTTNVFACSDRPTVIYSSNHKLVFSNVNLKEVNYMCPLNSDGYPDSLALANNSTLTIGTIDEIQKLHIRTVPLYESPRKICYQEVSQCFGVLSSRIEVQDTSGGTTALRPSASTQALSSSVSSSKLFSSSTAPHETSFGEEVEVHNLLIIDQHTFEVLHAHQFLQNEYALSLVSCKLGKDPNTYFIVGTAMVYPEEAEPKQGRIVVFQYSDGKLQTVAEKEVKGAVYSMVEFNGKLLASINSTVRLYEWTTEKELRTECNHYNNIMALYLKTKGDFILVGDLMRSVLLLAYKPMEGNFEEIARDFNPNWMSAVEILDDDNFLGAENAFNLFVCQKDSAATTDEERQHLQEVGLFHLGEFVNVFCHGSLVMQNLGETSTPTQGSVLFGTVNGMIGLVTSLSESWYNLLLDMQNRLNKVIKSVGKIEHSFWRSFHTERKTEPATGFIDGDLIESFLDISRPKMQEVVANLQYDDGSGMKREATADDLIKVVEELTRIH

For `O=C1CCN(N2Cc3cc(CN4CCN(c5ccc6c(c5)nc(NC(=O)c5cccc(C(F)(F)F)c5)n6[C@H]5CC[C@@H](CO)CC5)CC4)ccc3C2=O)C(=O)N1` [GT-04949, N-(5-(4-((2-(2,4-dioxotetrahydropyrimidin-1(2H)-yl)-1-oxoisoindolin-5-yl)methyl)piperazin-1-yl)-1-((1s,4s)-4-(hydroxymethyl)cyclohexyl)-1H-benzo[d]imidazol-2-yl)-3-(trifluoromethyl)benzamide], the IC50 (JEKO-1; [11]) was 100 to 300 nM, the IC50 [1] was 100 to 300 nM and the IC50 [2, 11] was 500 to 1000 nM. The IC50 [3, 12] was 500 to 1000 nM and the IC50 [4, 11] was 100 to 300 nM.

`O=C1CCN(N2Cc3cc(CN4CCC(N5CCN(c6ccc7c(c6)nc(NC(=O)c6cccc(C(F)(F)F)c6)n7[C@H]6CC[C@@H](CO)CC6)CC5)CC4)ccc3C2=O)C(=O)N1` [GT-05019, N-(5-(4-(1-((2-(2,4-dioxotetrahydropyrimidin-1(2H)-yl)-1-oxoisoindolin-5-yl)methyl)piperidin-4-yl)piperazin-1-yl)-1-((1s,4s)-4-(hydroxymethyl)cyclohexyl)-1H-benzo[d]imidazol-2-yl)-3-(trifluoromethyl)benzamide] showed an IC50 (JEKO-1; [11]) of 500 to 1000 nM, an IC50 [1] of 500 to 1000 nM and an IC50 [2, 11] of 500 to 1000 nM. For the same compound, the IC50 [3, 12] was 500 to 1000 nM, the “Degradation of substrate protein IRAK4 (substrate protein remaining %)” value (IRAK4) was “A (0%≤substrate protein remaining %≤80%)” and the IC50 [4, 11] was 500 to 1000 nM.

With `CCCc1cc(C)[nH]c(=O)c1CNC(=O)c1cc(-c2ccc(N3CCC(N(C)Cc4ccc5c(c4)C(=O)N(N4CCC(=O)NC4=O)C5=O)CC3)nc2)cc2c1cnn2C(C)C` [GT-08421, 6-(6-(4-(((2-(2,4-dioxotetrahydropyrimidin-1(2H)-yl)-1,3-dioxoisoindolin-5-yl)methyl)(methyl)amino)piperidin-1-yl)pyridin-3-yl)-1-isopropyl-N-((6-methyl-2-oxo-4-propyl-1,2-dihydropyridin-3-yl)methyl)-1H-indazole-4-carboxamide] the “Degradation of substrate protein EZH2 (substrate protein remaining %)” value (EZH2) was “A (0%≤substrate protein remaining %≤80%)”, the inhibition at 0.01 µM [5] was 15 to 20% and the inhibition at 0.5 µM [5] was 20 to 30%. The inhibition at 0.01 µM [6] was 20 to 30% and the inhibition at 0.5 µM [6] was 20 to 30%.

In the case of `CCCc1cc(C)[nH]c(=O)c1CNC(=O)c1cc(-c2ccc(N3CCN(C4CCN(Cc5ccc6c(c5)C(=O)N(N5CCC(=O)NC5=O)C6=O)CC4)CC3)nc2)cc2c1cnn2C(C)C` [GT-08423, 6-(6-(4-(1-((2-(2,4-dioxotetrahydropyrimidin-1(2H)-yl)-1,3-dioxoisoindolin-5-yl)methyl)piperidin-4-yl)piperazin-1-yl)pyridin-3-yl)-1-isopropyl-N-((6-methyl-2-oxo-4-propyl-1,2-dihydropyridin-3-yl)methyl)-1H-indazole-4-carboxamide], the “Degradation of substrate protein EZH2 (substrate protein remaining %)” value (EZH2) is reported as “A (0%≤substrate protein remaining %≤80%)”, the inhibition at 0.01 µM [5] is reported as 20 to 30% and the inhibition at 0.5 µM [5] is reported as 30 to 40%. The inhibition at 0.01 µM [6] was 20 to 30% and the inhibition at 0.5 µM [6] was 40 to 50%.

Compound `C=CC(=O)N1CCC(c2ccc(C(N)=O)c(-c3ccc(Oc4ccccc4)cc3)n2)CC1` [Orelabrutinib, reference compound] has an IC50 [7] of over 10000 nM, an IC50 (JEKO-1; Table IC1, BTK inhibitor-based) of over 10000 nM and an IC50 ([2]; Table IC1, BTK inhibitor-based) of over 10000 nM. The IC50 ([3]; Table IC1, BTK inhibitor-based) was over 10000 nM and the IC50 ([4]; Table IC1, BTK inhibitor-based) was over 10000 nM.

Work on `CC[C@@H]1[C@H](F)C(=O)N[C@@H]1COc1nccc2cc(C(N)=O)c(OC)cc12` [PF06650833, PF-06650833, reference compound] yielded an IC50 (JEKO-1; [11]) of 500 to 1000 nM, an inhibition at 0.01 µM ([8]; MV-4-11, 10 nM, read-out: Inhibition Rate at 10 nM (%)) of 20 to 36% and an inhibition at 0.5 µM ([8]; MV-4-11, 500 nM, read-out: Inhibition Rate at 500 nM (%)) of 20 to 36%. The inhibition at 0.01 µM [9] was 0 to 5%, the inhibition at 0.5 µM [10] was 10 to 15% and the IC50 [1] was 1000 to 5000 nM. It also gave an IC50 [2, 11] of 5000 to 10000 nM, an IC50 [3, 12] of 5000 to 10000 nM and an IC50 [4, 11] of over 10000 nM.

Compound `C=CC(=O)N1CCC[C@@H](n2nc(-c3ccc(Oc4ccccc4)cc3)c3c(N)ncnc32)C1` [ibrutinib, Ibrutinib, reference compound] has an IC50 [7] of 1000 to 5000 nM, an IC50 (JEKO-1; Table IC1, BTK inhibitor-based) of over 10000 nM and an IC50 ([2]; Table IC1, BTK inhibitor-based) of over 10000 nM. The IC50 ([3]; Table IC1, BTK inhibitor-based) was over 10000 nM and the IC50 ([4]; Table IC1, BTK inhibitor-based) was over 10000 nM.
